Consider 17 molecules from patent US20250302815A1, “PROTEIN TYROSINE PHOSPHATASE TARGETING LIGANDS” (CALICO LIFE SCIENCES LLC, priority 2021, published 2025).

Each structure is given as a SMILES string.

One experiment deals with T1, PTPN2 (B16F10.4 cells) (Mus musculus, UniProt Q06180).
T1 construct: HiBiT; host or cells: B16F10.4
T1 sequence (Q06180 1-406): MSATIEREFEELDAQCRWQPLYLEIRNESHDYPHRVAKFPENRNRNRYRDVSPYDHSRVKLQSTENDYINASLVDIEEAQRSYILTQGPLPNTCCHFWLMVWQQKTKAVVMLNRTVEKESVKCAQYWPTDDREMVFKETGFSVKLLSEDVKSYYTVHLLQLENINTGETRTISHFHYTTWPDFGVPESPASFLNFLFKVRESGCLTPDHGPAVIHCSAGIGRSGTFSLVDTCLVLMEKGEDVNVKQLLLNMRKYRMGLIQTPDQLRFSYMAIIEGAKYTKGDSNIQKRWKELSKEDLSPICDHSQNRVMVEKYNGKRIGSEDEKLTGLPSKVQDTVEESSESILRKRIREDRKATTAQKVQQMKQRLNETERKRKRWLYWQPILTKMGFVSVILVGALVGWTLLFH
Briefly: HiBiT Degradation B16F10.4 PTPN2. Format: cell-based. As to conditions: 24.0 hours. Background: With HiBiT, luminescence reflects the tagged protein that the partner subunit can reach.

Experiment [1] concerns the target T2, PTPN2 (HiBIT-PTPN2 in 293T.109 cells) (Homo sapiens, UniProt P17706).
T2 construct: expressed in transfected cells; host or cells: 293T.109 (293T WT from ATCC)
T2 sequence (P17706 1-415): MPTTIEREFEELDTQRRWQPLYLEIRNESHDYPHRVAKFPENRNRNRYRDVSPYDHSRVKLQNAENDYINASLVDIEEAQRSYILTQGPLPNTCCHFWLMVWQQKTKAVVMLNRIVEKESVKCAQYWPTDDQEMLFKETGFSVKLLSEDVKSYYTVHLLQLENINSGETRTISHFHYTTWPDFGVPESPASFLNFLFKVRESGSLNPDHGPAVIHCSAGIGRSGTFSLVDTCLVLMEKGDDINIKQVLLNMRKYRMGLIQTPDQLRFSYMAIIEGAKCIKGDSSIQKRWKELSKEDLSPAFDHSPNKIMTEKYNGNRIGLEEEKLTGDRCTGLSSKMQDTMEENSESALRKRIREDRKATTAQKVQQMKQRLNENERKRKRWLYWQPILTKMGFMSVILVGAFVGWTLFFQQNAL
As to the kind of experiment: HiBiT Degradation 293T.109 PTPN2 (Nano-Glo HiBiT Lytic Assay). Type of experiment: cell-based. The conditions noted are these: 24.0 hours. The procedure, abridged:
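293T.109 cells with ectopic N-terminal HiBiT-tagged PTPN2 (5000/well) exposed to compounds for 24 h at 37 °C, 5% CO2; 11-point half-log titration from 10 μM top, duplicates. Remaining HiBiT-PTPN2 read as luminescence with Nano-Glo HiBiT lytic reagent, normalised to untreated cells (0%) and reagent-free wells.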

For `CC1(C)C[C@@H](Oc2cccc(-c3sc(C(=O)O)c(OCC(=O)O)c3Cl)c2)CCN1S(=O)(=O)Cc1cccc(NC(=O)N2CCC(c3ccc4c5c(cccc35)C(=O)N4C3CCC(=O)NC3=O)CC2)c1` (stereo partly drawn) [Example 228, 3-(carboxymethoxy)-4-chloro-5-(3-(((4S)-1-((3-(4-(1-(2,6-dioxopiperidin-3-yl)-2-oxo-1,2-dihydrobenzo[cd]indol-6-yl)piperidine-1-carboxamido)benzyl)sulfonyl)-2,2-dimethylpiperidin-4-yl)oxy)phenyl)thiophene-2-carboxylic acid], the DC50 (in general, the concentration at which degradation of the target reaches its halfway point) was less than 50 nM at PTPN2 (B16F10.4 cells) and 200 to 1000 nM in experiment [1].

In the case of `Cn1c(=O)n(C2CCC(=O)NC2=O)c2ccc(N3CCC(C(=O)Nc4cccc(CS(=O)(=O)N5CCC(Nc6cccc(-c7sc(C(=O)O)c(OCC(=O)O)c7Cl)c6)CC5)c4)CC3)cc21` (stereo not shown) [Example 112, 3-(carboxymethoxy)-4-chloro-5-[3-[[1-[[3-[[1-[1-(2,6-dioxo-3-piperidyl)-3-methyl-2-oxo-benzimidazol-5-yl]piperidine-4-carbonyl]amino]phenyl]methylsulfonyl]-4-piperidyl]amino]phenyl]thiophene-2-carboxylic acid], the 50% degradation concentration (DC50) (on PTPN2 (B16F10.4 cells); in experiment [1]) was 50 to 200 nM in each case.

As to `CC1(C)C[C@@H](Nc2cccc(-c3sc(C(=O)O)c(OCC(=O)O)c3Cl)c2F)CCN1S(=O)(=O)Cc1ccc(F)c(NC(=O)C2CN(C(=O)CNc3cccc4c3CN([C@@H]3CCC(=O)NC3=O)C4=O)C2)c1` (single isomer, unassigned) [Example 148a], the DC50 at PTPN2 (B16F10.4 cells) is 200 to 1000 nM; in experiment [1], less than 50 nM.

In the case of `CC1(C)C[C@@H](Nc2cccc(-c3sc(C(=O)O)c(OCC(=O)O)c3Cl)c2)CCN1S(=O)(=O)Cc1cccc(NCCNCCCc2ccc3c4c(cccc24)C(=O)N3C2CCC(=O)NC2=O)c1` (stereo partly shown) [Example 201], the DC50 (on PTPN2 (B16F10.4 cells); in experiment [1]) was 50 to 200 nM in each case.

As to `COCCn1c(=O)n(C2CCC(=O)NC2=O)c2ccc(C3CCN(C(=O)Nc4cccc(CS(=O)(=O)N5CC[C@H](Nc6cccc(-c7sc(C(=O)O)c(OCC(=O)O)c7Cl)c6)CC5(C)C)c4)CC3)cc21` (stereo partly drawn) [Example 160, 3-(carboxymethoxy)-4-chloro-5-(3-(((4S)-1-((3-(4-(1-(2,6-dioxopiperidin-3-yl)-3-(2-methoxyethyl)-2-oxo-2,3-dihydro-1H-benzo[d]imidazol-5-yl)piperidine-1-carboxamido)benzyl)sulfonyl)-2,2-dimethylpiperidin-4-yl)amino)phenyl)thiophene-2-carboxylic acid], the DC50 (on PTPN2 (B16F10.4 cells); in experiment [1]) was 50 to 200 nM each time.

With `Cn1c(=O)n(C2CCC(=O)NC2=O)c2ccc(C3CN(CC(=O)Nc4cccc(CS(=O)(=O)N5CC[C@H](Nc6cccc(-c7sc(C(=O)O)c(OCC(=O)O)c7Cl)c6)CC5(C)C)c4)C3)cc21` (stereo partly shown) [Example 184], the DC50 on PTPN2 (B16F10.4 cells) is 50 to 200 nM; in experiment [1] it was less than 50 nM.

In the case of `CC1(C)C[C@@H](Nc2cccc(-c3sc(C(=O)O)c(OCC(=O)O)c3Cl)c2)CCN1S(=O)(=O)Cc1cccc(NC(=O)N2CCC[C@H](c3ccc4c5c(cccc35)N(C3CCC(=O)NC3=O)C4=O)CC2)c1` (stereo partly drawn) [Example 223, 3-(carboxymethoxy)-4-chloro-5-(3-(((4S)-1-((3-((4S)-4-(1-(2,6-dioxopiperidin-3-yl)-2-oxo-1,2-dihydrobenzo[cd]indol-5-yl)azepane-1-carboxamido)benzyl)sulfonyl)-2,2-dimethylpiperidin-4-yl)amino)phenyl)thiophene-2-carboxylic acid], the DC50 on PTPN2 (B16F10.4 cells) is 50 to 200 nM; in experiment [1], 200 to 1000 nM.

For the molecule `Cn1c(=O)n(C2CCC(=O)NC2=O)c2ccc(N3CCC(O)(CC(=O)Nc4cccc(CS(=O)(=O)N5CC[C@H](Nc6cccc(-c7sc(C(=O)O)c(OCC(=O)O)c7Cl)c6)CC5(C)C)c4)CC3)cc21` (stereo partly drawn) [Example 183, 3-(carboxymethoxy)-4-chloro-5-[3-[[(4S)-1-[[3-[[2-[1-[1-(2,6-dioxo-3-piperidyl)-3-methyl-2-oxo-benzimidazol-5-yl]-4-hydroxy-4-piperidyl]acetyl]amino]phenyl]methylsulfonyl]-2,2-dimethyl-4-piperidyl]amino]phenyl]thiophene-2-carboxylic acid], the 50% degradation concentration (DC50) (at PTPN2 (B16F10.4 cells); in experiment [1]) was 50 to 200 nM throughout.

For the molecule `Cn1c(=O)n([C@@H]2CCC(=O)NC2=O)c2ccc([C@@H]3CCN(C(=O)Nc4cccc(CS(=O)(=O)N5CC[C@H](Nc6cccc(-c7sc(C(=O)O)c(OCC(=O)O)c7Cl)c6)CC5(C)C)c4)CC3(F)F)cc21` (single isomer, unassigned) [Example 169b], the DC50 (at PTPN2 (B16F10.4 cells); in experiment [1]) was 50 to 200 nM in each case.

As to `Cn1c(=O)n(C2CCC(=O)NC2=O)c2ccc(C#CCNC(=O)Nc3cccc(CS(=O)(=O)N4CC[C@H](Nc5cccc(-c6sc(C(=O)O)c(OCC(=O)O)c6Cl)c5)CC4(C)C)c3)cc21` (stereo partly drawn) [Example 91, 3-(carboxymethoxy)-4-chloro-5-(3-(((4S)-1-((3-(3-(3-(1-(2,6-dioxopiperidin-3-yl)-3-methyl-2-oxo-2,3-dihydro-1H-benzo[d]imidazol-5-yl)prop-2-yn-1-yl)ureido)benzyl)sulfonyl)-2,2-dimethylpiperidin-4-yl)amino)phenyl)thiophene-2-carboxylic acid], the DC50 (on PTPN2 (B16F10.4 cells); in experiment [1]) was 50 to 200 nM in each case.

In the case of `Cn1c(=O)n(C2CCC(=O)NC2=O)c2ccc(Cc3ccc(CC(=O)Nc4cccc(CS(=O)(=O)N5CC[C@H](Nc6cccc(-c7sc(C(=O)O)c(OCC(=O)O)c7Cl)c6)CC5(C)C)c4)cc3)cc21` (stereo partly drawn) [Example 236, 3-(carboxymethoxy)-4-chloro-5-[3-[[(4S)-1-[[3-[[2-[4-[[1-(2,6-dioxo-3-piperidyl)-3-methyl-2-oxo-benzimidazol-5-yl]methyl]phenyl]acetyl]amino]phenyl]methylsulfonyl]-2,2-dimethyl-4-piperidyl]amino]phenyl]thiophene-2-carboxylic acid], the DC50 (at PTPN2 (B16F10.4 cells); in experiment [1]) was less than 50 nM each time.

`CC1(C)C[C@@H](Nc2cccc(-c3sc(C(=O)O)c(OCC(=O)O)c3Cl)c2)CCN1S(=O)(=O)Cc1cccc(NC(=O)COC2CCN(C(=O)CNc3cccc4c3CN(C3CCC(=O)NC3=O)C4=O)CC2)c1` (stereo partly shown) [Example 90]: the DC50 at PTPN2 (B16F10.4 cells) was 200 to 1000 nM; in experiment [1], less than 50 nM.

Consider `CC1(C)C[C@@H](Nc2cccc(-c3sc(C(=O)O)c(OCC(=O)O)c3Cl)c2)CCN1S(=O)(=O)Cc1cccc(NC(=O)C2CN(C(=O)COc3cccc4c3CN(C3CCC(=O)NC3=O)C4=O)C2)c1` (stereo partly shown) [Example 74], for which the figures for the DC50 (at PTPN2 (B16F10.4 cells); in experiment [1]) were no less than 1000 nM and less than 50 nM, respectively.

For `Cn1c(=O)n(C2CCC(=O)NC2=O)c2ccc(N3CCC(N4CCN(c5cccc(CS(=O)(=O)N6CCC(Nc7cccc(-c8sc(C(=O)O)c(OCC(=O)O)c8Cl)c7)CC6)c5)C4=O)CC3)cc21` (stereo not shown) [Example 142, 3-(carboxymethoxy)-4-chloro-5-(3-((1-((3-(3-(1-(1-(2,6-dioxopiperidin-3-yl)-3-methyl-2-oxo-2,3-dihydro-1H-benzo[d]imidazol-5-yl)piperidin-4-yl)-2-oxoimidazolidin-1-yl)benzyl)sulfonyl)piperidin-4-yl)amino)phenyl)thiophene-2-carboxylic acid], the DC50 on PTPN2 (B16F10.4 cells) was 50 to 200 nM; in experiment [1], less than 50 nM.

Take `CC1(C)C[C@@H](Nc2cccc(-c3sc(C(=O)O)c(OCC(=O)O)c3Cl)c2)CCN1S(=O)(=O)Cc1cccc(NC(=O)N2CCC(Oc3ccc4c(c3)CN(C3CCC(=O)NC3=O)C4=O)CC2)c1` (stereo partly shown) [Example 76]: the DC50 is no less than 1000 nM on PTPN2 (B16F10.4 cells) and 200 to 1000 nM in experiment [1].

As for `Cc1nn(C2CCC(=O)NC2=O)c2ccc(C3CCN(C(=O)Nc4cccc(CS(=O)(=O)N5CC[C@H](Nc6cccc(-c7sc(C(=O)O)c(OCC(=O)O)c7Cl)c6)CC5(C)C)c4)CC3)cc12` (stereo partly drawn) [Example 233, 3-(carboxymethoxy)-4-chloro-5-[3-[[(4S)-1-[[3-[[4-[1-(2,6-dioxo-3-piperidyl)-3-methyl-indazol-5-yl]piperidine-1-carbonyl]amino]phenyl]methylsulfonyl]-2,2-dimethyl-4-piperidyl]amino]phenyl]thiophene-2-carboxylic acid], the DC50 (on PTPN2 (B16F10.4 cells); in experiment [1]) was 200 to 1000 nM throughout.

Regarding `Cn1c(=O)n(C2CCC(=O)NC2=O)c2ccc(Nc3ccc(C(=O)Nc4cccc(CS(=O)(=O)N5CC[C@H](Nc6cccc(-c7sc(C(=O)O)c(OCC(=O)O)c7Cl)c6)CC5(C)C)c4)cc3)cc21` (stereo partly shown) [Example 144], the DC50 on PTPN2 (B16F10.4 cells) was 50 to 200 nM; in experiment [1], less than 50 nM.
